In series [1] the test system is immunoglobulin (Ig) in serum. The note with it: 3 days after 1 mg GMDP orally x 10 days. An excerpt:
(§1) The study group consisted of 50 women between 20 and 30 years of age (mean 26.7) with HPV of the cervix. The duration of the disease varied from 1 to 3.5 years. […] To control for variation in Ig content of cervical secretions during the menstrual cycle, treatment was commenced 8-10 days after the beginning of the period.
(§2) A number of immunological parameters were monitored before the beginning of treatment; immunoglobulin (Ig) in serum (radial immunodiffusion), Ig in saliva and genital tract secretions (ELISA), subpopulations of immune cells (immunocytofluorimetry).
(§3) Follow up studies on the clinical progression of the HPV infection were performed
(§4) Control values for immunological parameters were also taken from a group of women free of HPV infection. Their age range was 20 to 30 years with a mean of 25.6.

The subject of series [2] is Ig in saliva and genital tract secretions. The note with it: 3 days after 1 mg GMDP orally x 10 days.
From the text: as §1, §2, §3, §4

For series [3], the system named is subpopulations of immune cells. The following applies: blood, 3 days after 1 mg GMDP orally x 10 days.
From the text: as §1, §2, §3, §4

For series [4] the following is noted: that of MDP = 100%; cited from earlier work.
The subject of series [5] is Human Papilloma Virus (HPV) infection of the uterine cervix. As for the experimental part: as §1, §3
The subject of series [6] is mice. The note with it: cited from earlier work.
Series [7] concerns IgA. In words: IgA levels in treated patients (mucosal immunity). The following applies: in words. The series is classed as in vivo, human.
Series [8] relates to lung and peritoneal macrophages. The following applies: orally administered, non-liposome encapsulated; cited from earlier work.
The subject of series [9] is melanoma metastases. The following applies: orally administered, non-liposome encapsulated; cited from earlier work.

As to `CC(=O)NC1C(OC2C(CO)OC(O)C(NC(C)=O)C2OC(C)C(=O)NC(C)C(=O)NC(CCC(=O)O)C(N)=O)OC(CO)C(O)C1O` [GMDP, N-acetyl-D-glucosaminyl-(β1-4)-N-acetylmuramyl-L-alanyl-D-isoglutamine], the “Serum IgM, after treatment” value in series [1] (before 123.8 ± 10.4, spread 11.2, p<0.01 vs before) is 160.8 mg/dL. In addition, the “Serum IgA, after treatment” value in series [1] (before 216.0 ± 16.8, spread 18.2) was 228.7 mg/dL. For the same molecule, the “Serum IgG, after treatment” value in series [1] (before 1424 ± 48, spread 51, p<0.01 vs before) was 1258 mg/dL. Moreover, the “Mucus of uterine cervix IgD, after treatment” value in [2] (before 0.326 ± 0.16, spread 0.17) was 0.315 mg/dL. For the same molecule, the “Saliva IgM, after treatment” value in series [2] (before 3.17 ± 1.05, spread 1.11) turned out to be 1.65 mg/dL. In addition, the “Mucus of uterine cervix IgM, after treatment” value in [2] (before 3.18 ± 2.21, spread 1.65) worked out at 1.8 mg/dL. Moreover, the “Mucus of uterine cervix IgG, after treatment” value in [2] (before 9.57 ± 2.19, spread 3.01) came out at 12.01 mg/dL. The “Saliva IgA, after treatment” value in [2] (before 11.45 ± 3.48, spread 2.98) came to 13.16 mg/dL. In addition, in series [2] (before 16.19 ± 4.01, spread 4.88), the “Saliva IgG, after treatment” value is 15.05 mg/dL. Also, the “Saliva sIgA, after treatment” value in series [2] (before 26.53 ± 5.23, spread 4.96) turned out to be 25.46 mg/dL. The “B-cells %, after treatment” value in [3] (before 5.30 ± 0.8, spread 1.07) is 5.08%. Also, the “CD16 +ve %, after treatment” value in [3] (before 16.3 ± 2.1, spread 2.3) is recorded as 13.1%. For the same molecule, the “CD8 +ve %, after treatment” value in [3] (before 24.2 ± 2.87, spread 3.17) amounted to 20.3%. The “Lymphocytes %, after treatment” value in series [3] (before 34.11 ± 3.16, spread 2.68) stood at 35.77%. In series [3] (before 34.6 ± 3.1, spread 3.8), the “CD4 +ve %, after treatment” value is 41.8%. Further, the “CD3 ve %, after treatment” value in series [3] (before 55.8 ± 4.1, spread 3.6) is recorded as 59.12%. Moreover, in [3] (before 80.1 ± 12.1, spread 21.7), the “B-cells absolute, after treatment” value is listed as 103.8. Also, in series [3] (before 246.3 ± 31.7, spread 47.1), the “CD16 +ve absolute, after treatment” value is 268.1. In series [3] (before 365.7 ± 43.4, spread 64.9), the “CD8 +ve absolute, after treatment” value is 415.3. The “pyrogenicity relative to MDP” value in series [4] is listed as “about 50%”. In addition, the “Recurrence of HPV, number of patients” value in series [5] (30 in group, 1 mg GMDP orally daily for 10 days, adjunct therapy, placebo 7 of 20) is on record as 3. Also, in [5] (30 in group, 1 mg GMDP orally daily for 10 days, adjunct therapy, placebo 35%), the “Recurrence of HPV, % of group” value is listed as 10%. Further, in series [5] (30 in group, 1 mg GMDP orally daily for 10 days, adjunct to antibiotics, laser and cryotherapy, placebo 13 of 20), the “Full Cure, number of patients” value is recorded as 27. Moreover, the “Full Cure, % of group” value in [5] (30 in group, 1 mg GMDP orally daily for 10 days, adjunct to laser and cryotherapy, placebo 65%) is on record as 90%. Further, the “rate of cure versus placebo group” value in series [5] (GMDP as adjunct to laser and cryotherapy, in words) is reported as “increase in the rate of cure”. Further, the “LD50 (acute toxicity)” value in series [6] was 7000 mg/kg. Also, the “levels of IgA in treated patients” value in [7] is given as “especially high”.

`CCCCCCCCCCCCCCCC(=O)OC[C@H](COP(=O)([O-])OCCNC(=O)[C@H](C)NC(=O)CC[C@@H](NC(=O)[C@H](C)NC(=O)[C@@H](C)O[C@H]1[C@H](O)[C@@H](CO)OC(O)[C@@H]1NC(C)=O)C(N)=O)OC(=O)CCCCCCCCCCCCCCC.O.[Na+]` (stereo partly drawn) [MTP-PE, N-acetyl-muramyl-L-alanyl-D-isoglutaminyl-L-alanyl-2-(1',2'-dipalmitoyl-sn-glycero-3'-hydroxy-phosphoryloxy)ethylamide, monosodium]: the “tumouricidal activity in lung and peritoneal macrophages” value in series [8] is “produced tumouricidal activity”. In series [9], the “eradicating well established melanoma metastases” value is “not effective”; the “inhibiting lung and lymph node metastasis” value is given as “effective”.

As to “N-acetyl-D-glucosaminyl-(β1-4)-N-acetylmuramyl-L-alanyl-D-glutamic acid [GMDP-A]”, the “levels of IgA in treated patients” value in series [7] is on record as “especially high”.

Source of the values: patent US5877147A, “Compounds for medicinal use” (Peptech (UK) Limited, priority 1993, dated 1999).
